Results on two compounds are retold here after patent US10544156B2, “Hemi-synthetic trilobine analogs for use as a drug” (PIERRE FABRE MEDICAMENT, priority 2015, dated 2020).

Test [1] relates to luciferase reporter gene under control of methylated CMV promoter in KG-1 cells. The test can be described thus: CMV-luc reexpression in KG-1 cells. It counts as cell-based, human. The settings on record: for Induction Fold (IF) of luciferase gene reporter in KG-1 CMV-Luc: 24 h, vs DMSO; for IF-24 h, KG1 CMV-Luc model: at 5 μM, 24 h (Table 5). The method, then: KG-1 cells were stably transfected with the firefly luciferase reporter gene (luc+ from pGL3; Promega) under the control of the cytomegalovirus (CMV) promoter (from pEGFP-N1; Clontech Laboratories Inc.) partially methylated (50%). 20,000 cells per well were seeded in a 96-well plate. After 24 h incubation in the presence of the test compound or solvant (DMSO), the induction of the promoter was measured by quantification of the luciferase signal with the Brite-lite assay system (PerkinElmer) according to the manufacturer's protocol. The luminescence was measured on an EnVision multilabel plate reader (PerkinElmer), and the data are expressed as the fold induction as compared with the DMSO control. The mean of three experiments and the standard error is reported.

The test system of test [2] is KG-1 (leukemia). The test can be described thus: Anti-proliferative activity (ATPLite). It counts as cell-based. The settings on record: Homo sapiens; daily treatment, cell viability by ATPLite; read-out: Antiproliferative activity: IC50 (μM) KG-1 (leukemia). The method, then:
(§1) To measure the anti-proliferative properties of tested molecules, 2×10^4 cells are seeded at day 0 in a 96 wells plate. The compounds to be tested, stored at −20° C. as 10^−2 M stock solution in 100% DMSO, are freshly diluted on day 1 in the cell medium, before adding a dose range of 3.2 nM to 10 μM to the cells. Cells are treated everyday and cell viability assessed after 3 days or 7 days of treatment. The cell viability is assessed using the ATPLite kit from Perkin (ATPlite 1 Step Luminescence Assay System, ref 3016739), following the provider instructions. The raw data are analyzed with GraphPad Prism software (v4.03) to generate IC50 values corresponding to the compound concentrations giving 50% reduction in cell viability. The values presented are the mean results of at least two independent experiments. The standard errors are indicated.
A general note: Cellular ATP, detected with luciferase, serves as a proxy for viable cell number.

The test system of test [3] is HCT116 (colorectal cancer). Nature of the test: Anti-proliferative activity (ATPLite). It counts as cell-based. The settings on record: Homo sapiens, HCT-116; daily treatment, cell viability by ATPLite; read-out: Antiproliferative activity: IC50 (μM) HCT116 (colorectal cancer). As for the experimental part: as §1
Test [4] concerns the target T1, human C-terminal DNMT3A (623-908a.a.) (Homo sapiens, UniProt Q9Y6K1).
T1 construct: The human C-terminal DNMT3A (623-908a.a.); made in house
The test can be described thus: hDNMT3A assay (restriction-based fluorescence assay). It counts as biochemical. The note with it: for inhibition at 10 µM: read-out: hDNMT 3A inhibition, Inhibition (%) 10 μM; for inhibition at 32 µM: read-out: hDNMT 3A inhibition, Inhibition (%) 32 μM. The text has this:
hDNMT3A enzyme inhibition was adapted from the restriction-based fluorescence assay protocol as described in the literature (Ceccaldi et al. Chem Bio Chem 2011, 12, 1337-1345). Briefly, a 5′-labelled biotin oligonucleotide is hybridized to its complementary strand labelled with 6-carboxyfluorescein at the 3′-end into a 384 well microplate (black Optiplates; Perkin Elmer) pre-coated with avidin. The duplex contains a unique CpG site overlapping with a restriction site of a methylation sensitive restriction enzyme. The human C-terminal DNMT3A (623-908a.a.), produced as described in (Gros et al. Nucl. Acids Res. 2013, 41(19):e185), was added in each well (200 ng/well) and mixed with the chemical compounds at desired concentrations and freshly prepared SAM (20 μM final concentration) to start the reaction in a total volume of 50 μL. After 1 hour incubation at 37° C. each well were washed three times with PBS, Tween-20 0.05%, NaCl (500 mM) and three more times with PBST. Specific fluorescent signals were detected with the methylation-sensitive restriction enzyme HpyCH4IV (NEB) as described and measured on a Perkin Elmer Envision detector. The percentage of inhibition is reported. The formula used to calculate the percentage of inhibition is [(X−Y)/X]×100, where X is the signal determined in the absence of the inhibitor and Y is the signal obtained in the presence of the inhibitor. The concentration at which 50% of efficacy of inhibition is observed (EC50) was determined by analysis of a concentration range of the tested compound in triplicates. The non-linear regression fittings with sigmoidal dose-response (variable slope) were performed with GraphPad Prism 4.03 (GraphPad Software).

In test [5] the target is T2, His-DNMT1 (182 kDa, human) (Homo sapiens, UniProt P26358).
T2 construct: His; made in house
The test can be described thus: hDNMT1 assay ([methyl-3H] SAM Flashplate). It counts as biochemical. The settings on record: for EC50: read-out: EC50 (μM), hDNMT 1 inhibition; for inhibition at 10 µM: read-out: hDNMT 1 inhibition, Inhibition (%) 10 μM; for inhibition at 32 µM: read-out: hDNMT 1 inhibition, Inhibition (%) 32 μM. The method, then:
His-DNMT1 (182 kDa, human) was cloned, expressed and purified as described (Halby et al. Chem Bio Chem 2012, 13, 157-165). The reaction was performed in a 10 μL total reaction volume in low volume NBS™ 384-well microplates (Corning), containing the tested compound (up to 1% DMSO), 1 μM of a SAM/[methyl-^3H] SAM (3TBq/mmol, PerkinElmer) mix in a ratio of 3-to-1 (isotopic dilution 1*:3), 0.3 μM of biotinylated hemimethylated DNA duplex (5′-GATmCGCmCGATGmCGmCGAATmCGmCGATmCGATGmCGAT-3′ and BIOT-5′-[…]-3′), and 90 nM of DNMT1 in methylation buffer (20 mM HEPES pH 7.2, 1 mM EDTA, 50 mM KCl, 25 μg/mL BSA). The reaction was incubated at 37° C. for 2 hours. 8 μL are then transferred into a streptavidin 96-well scintillant coated Flashplate™ (PerkinElmer) containing 190 μL of 20 μM SAH in 50 mM Tris-HCl pH 7.4. The Flashplate™ was agitated at room temperature for 1 hour and read in 200 μL of 50 mM Tris-HCl pH 7.4 on TopCount NXT (PerkinElmer). The percentage of inhibition is reported. The formula used to calculate the percentage of inhibition is [(X−Y)/X]×100, where X is the signal determined in the absence of the inhibitor and Y is the signal obtained in the presence of the inhibitor.

Setting [6] is: concentration at which 50% of efficacy of inhibition is observed, read-out: EC50 (μM), hDNMT 3A inhibition.
Where [7] appears, read: interval line below the EC50 of the same compound, read-out: EC50 (μM), range given.

In general, IC50 refers to the concentration needed to halve the response being measured. For orientation: EC50 means the concentration that produces a half-maximal response. In general, inhibition refers to the percentage by which the read-out fell short of the control.

Structures are written as SMILES. Where two headings read alike, the source gives them in different places.

T2 sequence (P26358 whole entry): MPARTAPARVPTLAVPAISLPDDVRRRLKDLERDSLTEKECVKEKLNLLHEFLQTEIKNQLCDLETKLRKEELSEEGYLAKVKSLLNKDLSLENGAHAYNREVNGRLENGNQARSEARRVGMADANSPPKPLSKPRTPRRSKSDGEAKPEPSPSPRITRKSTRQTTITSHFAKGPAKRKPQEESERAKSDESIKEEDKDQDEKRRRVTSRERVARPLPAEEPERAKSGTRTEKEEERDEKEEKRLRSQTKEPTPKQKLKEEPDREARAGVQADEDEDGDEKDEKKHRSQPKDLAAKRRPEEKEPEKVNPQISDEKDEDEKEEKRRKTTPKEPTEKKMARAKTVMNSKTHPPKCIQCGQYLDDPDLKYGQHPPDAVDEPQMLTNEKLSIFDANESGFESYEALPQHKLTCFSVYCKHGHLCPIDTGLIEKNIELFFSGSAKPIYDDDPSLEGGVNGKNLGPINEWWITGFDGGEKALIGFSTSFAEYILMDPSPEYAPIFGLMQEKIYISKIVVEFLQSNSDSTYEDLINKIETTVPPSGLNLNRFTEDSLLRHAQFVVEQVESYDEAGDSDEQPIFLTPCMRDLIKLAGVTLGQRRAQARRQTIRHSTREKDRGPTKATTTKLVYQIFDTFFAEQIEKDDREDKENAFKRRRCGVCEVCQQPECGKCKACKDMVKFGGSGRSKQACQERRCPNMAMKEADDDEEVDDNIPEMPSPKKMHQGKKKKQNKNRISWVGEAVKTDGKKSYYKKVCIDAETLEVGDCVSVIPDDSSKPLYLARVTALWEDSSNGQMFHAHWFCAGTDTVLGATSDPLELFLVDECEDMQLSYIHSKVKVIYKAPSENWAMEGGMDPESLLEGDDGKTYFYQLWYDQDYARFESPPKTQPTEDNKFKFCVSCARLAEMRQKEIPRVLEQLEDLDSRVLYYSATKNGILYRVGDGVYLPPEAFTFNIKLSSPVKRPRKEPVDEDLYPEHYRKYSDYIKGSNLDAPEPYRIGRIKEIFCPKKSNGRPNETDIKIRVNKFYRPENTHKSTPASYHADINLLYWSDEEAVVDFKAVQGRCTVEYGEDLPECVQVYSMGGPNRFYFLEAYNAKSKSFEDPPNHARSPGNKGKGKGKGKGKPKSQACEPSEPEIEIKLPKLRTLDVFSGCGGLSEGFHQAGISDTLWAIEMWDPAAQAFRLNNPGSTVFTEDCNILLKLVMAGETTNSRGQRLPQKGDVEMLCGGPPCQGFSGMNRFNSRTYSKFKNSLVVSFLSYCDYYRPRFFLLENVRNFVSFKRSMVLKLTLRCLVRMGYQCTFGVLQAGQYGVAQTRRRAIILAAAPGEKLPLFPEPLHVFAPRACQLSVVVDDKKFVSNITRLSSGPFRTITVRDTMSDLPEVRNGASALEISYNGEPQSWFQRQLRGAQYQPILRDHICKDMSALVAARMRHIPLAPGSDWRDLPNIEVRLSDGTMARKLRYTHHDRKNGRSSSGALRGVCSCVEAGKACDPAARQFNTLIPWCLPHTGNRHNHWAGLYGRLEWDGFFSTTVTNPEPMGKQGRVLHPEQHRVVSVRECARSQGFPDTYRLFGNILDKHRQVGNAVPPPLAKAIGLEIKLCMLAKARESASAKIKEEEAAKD
T1 sequence (Q9Y6K1 627-912 limits assumed): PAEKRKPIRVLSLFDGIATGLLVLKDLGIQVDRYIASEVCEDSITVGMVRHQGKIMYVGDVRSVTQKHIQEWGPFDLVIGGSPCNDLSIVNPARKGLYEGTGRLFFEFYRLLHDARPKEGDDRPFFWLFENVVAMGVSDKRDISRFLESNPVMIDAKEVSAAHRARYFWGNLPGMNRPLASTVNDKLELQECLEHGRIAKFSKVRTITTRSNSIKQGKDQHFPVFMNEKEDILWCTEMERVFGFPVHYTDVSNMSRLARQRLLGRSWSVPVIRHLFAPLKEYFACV

In the case of `CCN(CC)CCCNC(=S)N1CCc2cc3c4cc2[C@@H]1Cc1ccc(OC)c(c1)Oc1ccc(cc1)C[C@H]1c2c(cc(OC)c(c2O4)O3)CCN1C` [Product 42], the “Induction Fold (IF) of luciferase gene reporter in KG-1 CMV-Luc” value in test [1] (0.1 μM) was 1.2 ± 0.1; in test [1] (0.32 μM) it was 1.3 ± 0.1; in test [1] (1 μM) it was 1.5 ± 0.1; in test [1] (3.2 μM), 2.0 ± 0.2; in test [1] (5 μM), 2.3 ± 0.1. In addition, the “IF-24 h, KG1 CMV-Luc model” value in test [1] amounted to 1.1 ± 0.6. The half-inhibitory concentration (IC50) in test [2] stood at 3.57 ± 0.04 µM; in test [3], 0.5 ± 0.01 µM. Also, the values for the EC50 in test [4] (setting [6]), in test [4] (setting [7]) and in test [5] were 0.64 µM, 0.47 to 0.86 µM and 10.6 ± 2.8 µM, respectively. Also, the values for the inhibition at 10 µM in test [4] and in test [5] were 98% and 38%, respectively. Further, the inhibition at 32 µM in test [4] was 98%; in test [5], 100%.
For `CCN(CC)CCCNC(=O)N1CCc2cc3c4cc2[C@@H]1Cc1ccc(OC)c(c1)Oc1ccc(cc1)C[C@H]1c2c(cc(OC)c(c2O4)O3)CCN1C(=O)NCCCN(CC)CC` [Product 48], the “Induction Fold (IF) of luciferase gene reporter in KG-1 CMV-Luc” value in test [1] (0.1 μM) was 1.1 ± 0.1; in test [1] (0.32 μM) it was 1.2 ± 0.3; in test [1] (1 μM) it was 1.2 ± 0.1; in test [1] (3.2 μM), 1.2 ± 0.1; in test [1] (5 μM), 1.3 ± 0.1; in test [1] (10 μM), 2.3 ± 1.3. For the same compound, the “IF-24 h, KG1 CMV-Luc model” value in test [1] was 1.1. Besides, the EC50 is 1.93 µM in test [4] (setting [6]), 1 to 3.72 µM in test [4] (setting [7]) and 14.6 ± 1.3 µM in test [5]. Besides, the inhibition at 10 µM in test [4] worked out at 82%; in test [5] it was 32%. For the same compound, the inhibition at 32 µM in test [4] and in test [5] was 98% throughout.
